# Measured values from patent US12472263B2, “Ophthalmic formulation” (PANOPTES PHARMA GES.M.B.H., priority 2018, dated 2025).
# Counter-ions that a name gives are not always drawn. Like-named read-outs stand apart in the source and are kept apart here.
# Columns and labels:
# [1] = Thermodynamic solubility in PBS pH 7.4 and in 5% HSA in PBS; assay type: physicochemical; conditions: for solubility thermodynamic: thermodynamic from solid; for Increase in solubility: from PBS to 5% HSA in PBS
# Procedure: The process was initiated by adding 1 mL of defined buffer to about 1 mg of the solid compound. The solutions were mixed for at least 15 hours. If there was no undissolved substance in the solution visible, an additional portion of the solid compound was added and the solution was further mixed for at least 15 hours. This step was repeated until a saturated solution in equilibrium was achieved; excess solid was clearly visible. The total mixing time until equilibrium should exceed 40 hours. After reaching the equilibrium, the solutions were centrifuged for 10 minutes at 14,000 rpm.
# [2] = biological target: T1, HSA (human serum albumin) (Homo sapiens, UniProt P02768); assay: Binding of different pharmaceutically active compounds to albumin, RED assay; assay type: in vitro ADME; conditions: 5 h, pH 7.4
# Procedure: (§1) For analysis of binding of different pharmaceutically active compounds to HSA (human serum albumin) a rapid equilibrium dialysis (RED) assay from Thermo Scientific™ was conducted. Different pharmaceutically active compounds (in saturated solutions as prepared in Example 1) were applied to the donor side of the device. PBS pH 7.4 was used as acceptor medium. The time required to achieve equilibrium in the dialysis was determined to 5 hours. The formulations were incubated at 23° C. at 300 rpm. The unbound fraction was allowed to permeate through the dialysis membrane into the acceptor buffer chamber. After 5 hours equilibration time, the unbound fraction was determined by analyzing the amount of the active compound in each compartment via LC/MS.
# The amount of free compound was calculated according to the equation:
# The amount of bound compound is calculated as % bound=100−% free
# [3] = Aqueous solubility in phosphate buffer pH 7.4, without and with 5% albumin; assay type: physicochemical; conditions: thermodynamic from solid
# Procedure: As used herein, “solubility in aqueous solution of at least X mg/mL” refers to thermodynamic solubility of a compound in an aqueous 50 mM phosphate buffer or phosphate buffered saline (PBS) solution at pH 7.4 at least X mg/mL. PP-001 has a solubility of 0.8 mg/mL in an aqueous phosphate buffer solution at pH 7.4. However, if the aqueous buffer solution comprises 5% albumin PP-001 has solubility of at least 5 mg/mL.
# uveitis = conditions: cited from earlier work
# [4] = biological target: T1, HSA (human serum albumin); assay: Binding of PP-001 to albumin, rapid equilibrium dialysis (RED) assay; assay type: in vitro ADME
# Procedure: as §1, with “PP-001” for “different pharmaceutically active compounds”, “PP-001 formulations” for “pharmaceutically active compounds (in saturated solutions as prepared in Example 1)”, “device and 50 mM phosphate buffer” for “device. PBS”, “time” for “time,”, “PP-001” for “the active compound”, “HPLC/DAD.” for “LC/MS.”
# (§2) To investigate nonspecific binding of PP-001 to the RED Device Inserts, a solution of 0.05 mg/mL PP-001 in 50 mM phosphate buffer pH 7.4 was used as a control sample. PP-001 concentration in the acceptor compartment was >82% of the concentration in the donor compartment. Only minor non-specific binding of PP-001 to the RED device was determined.
# (§3) The amount of free PP-001 was calculated according to the equation:
# (§4) The amount of bound PP-001 is calculated as % bound=100−% free
# human serum albumin = human serum albumin (Homo sapiens, UniProt P02768); assay: as above; assay type: in vitro ADME; conditions: PP-001/human serum albumin formulation, pH 7.4; formulation dosed in the rabbit PK study
# Procedure: as §1, with “PP-001” for “different pharmaceutically active compounds”, “PP-001 formulations” for “pharmaceutically active compounds (in saturated solutions as prepared in Example 1)”, “device and 50 mM phosphate buffer” for “device. PBS”, “time” for “time,”, “PP-001” for “the active compound”, “HPLC/DAD.” for “LC/MS.”
# as §2, §3, §4
# [5] = PK study in rabbits after topical ocular administration; assay type: in vivo, New Zealand White rabbits
# Procedure: To confirm that PP-001/albumin formulations deliver sufficient PP-001 to target tissues (i.e. conjunctiva and cornea), a pharmacokinetic study was performed in New Zealand White rabbits.
# 10 female animals of ca. 3 months age were dosed one drop (35 μL drop size) of the formulation 1 (3 mg/ml PP-001) in both eyes at time point 0. Animals were sacrificed 5 or 30 minutes or 2, 4, or 12 hours after dosing and ocular tissues and plasma were collected. PP-001 concentration in plasma and tissues were determined by a validated HPLC-MS analytical method.
# [6] = aqueous buffer, PBS pH 7.4, saturated, LC/MS, read-out: Thermodynamic solubility in PBS pH 7.4
# [7] = plasma or biological fluid, 5% HSA in PBS pH 7.4, saturated, LC/MS, read-out: Thermodynamic solubility in 5% HSA in PBS pH 7.4
# T1 sequence (P02768 25-609): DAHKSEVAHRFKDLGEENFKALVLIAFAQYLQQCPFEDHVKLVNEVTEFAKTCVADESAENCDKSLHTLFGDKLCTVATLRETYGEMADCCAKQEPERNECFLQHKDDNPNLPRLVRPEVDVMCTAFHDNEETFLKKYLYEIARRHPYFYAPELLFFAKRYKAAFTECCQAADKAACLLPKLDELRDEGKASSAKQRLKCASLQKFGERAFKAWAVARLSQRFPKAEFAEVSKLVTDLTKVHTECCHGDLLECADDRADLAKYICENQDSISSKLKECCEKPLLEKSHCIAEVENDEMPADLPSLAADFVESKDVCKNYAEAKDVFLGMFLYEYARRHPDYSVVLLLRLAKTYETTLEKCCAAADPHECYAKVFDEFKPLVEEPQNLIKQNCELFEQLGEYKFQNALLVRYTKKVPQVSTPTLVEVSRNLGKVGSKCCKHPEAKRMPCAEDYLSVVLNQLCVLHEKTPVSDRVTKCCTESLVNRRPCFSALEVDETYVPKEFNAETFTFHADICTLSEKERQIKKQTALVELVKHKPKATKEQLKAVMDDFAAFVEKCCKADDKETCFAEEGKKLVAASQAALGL
# Sequence of human serum albumin (P02768 25-609): as above
Compound,"solubility thermodynamic [1, 6] [µg/mL]",Increase in solubility [1],"solubility thermodynamic [1, 7] [µg/mL]",% bound ([2]; isolated protein) [%],further results
CC(=O)O[C@H]1C[C@@]2(C)[C@@H](C[C@@H](O)[C@H]3[C@@]4(C)CC[C@@H](O)[C@@H](C)[C@@H]4CC[C@@]32C)/C1=C(\CCC=C(C)C)C(=O)O [Fusidic Acid],483,195%,1420,95.7,–
C[C@@H]1CN([C@H]2CC[C@](C#N)(c3ccc(F)cc3)CC2)CC[C@]1(C(=O)O)c1ccccc1 [Levocabastine HCl],3,–,83,75.4,"Increase in solubility ([1]; HCl): 2,333%^; Increase in solubility ([1]; listed as levocabastine HCl, HCl): 2,333%"
CN1CCCC(n2nc(Cc3ccc(Cl)cc3)c3ccccc3c2=O)CC1 (stereo not drawn) [Azelastine HCl],421,96%,827,80.9,–
CCN[C@H]1CN(CCCOC)S(=O)(=O)c2sc(S(N)(=O)=O)cc21 [Brinzolamide],273,42%,387,70.3,–
"O=C(Nc1c(F)c(F)c(-c2cccc(OC(F)(F)F)c2)c(F)c1F)c1ccsc1C(=O)O [PP-001, 3-(2,3,5,6-tetrafluoro-3′-trifluoromethoxy-biphenyl-4-ylcarbamoyl)-thiophene-2-carboxylic acid]",48,–,2910,99.9,"solubility ([3]; aqueous buffer with 5% albumin, aqueous with cosolvent or surfactant or cyclodextrin, buffer pH 7.4 with 5% albumin, read-out: solubility in aqueous buffer solution comprising 5% albumin): ≥ 5000 µg/mL; solubility ([3]; aqueous phosphate buffer, aqueous buffer, phosphate buffer pH 7.4, read-out: aqueous solubility in phosphate buffer pH 7.4): 800 µg/mL; relapses of experimental autoimmune uveitis (uveitis; therapeutic approach): prevents relapses; clinical and histological symptoms of uveitis (uveitis; two different rat models for uveitis): completely ameliorates clinical and histological symptoms; PP-001 concentration in the acceptor compartment as % of the donor compartment (nonspecific binding control) ([4]; 0.05 mg/mL PP-001 in 50 mM phosphate buffer pH 7.4, no albumin): > 82%; binding of PP-001 to albumin (in words) ([4]; even at high PP-001 concentrations): nearly completely bound to albumin; fraction unbound at 5 h, 3 mg/ml (human serum albumin): < 0.05; Cmax ([5]; female, New Zealand White, rabbit, plasma, topical, 35 μL drop of 3 mg/ml per eye, one 35 μL drop of formulation 1 (3 mg/ml PP-001) in both eyes): < 9 ng/mL; absorption of PP-001 by ocular tissues (conjunctiva, cornea) ([5]; one 35 μL drop of formulation 1 (3 mg/ml PP-001) in both eyes): substantial amounts of PP-001 are absorbed by ocular tissues; persistence in the cornea ([5]; one 35 μL drop of formulation 1 (3 mg/ml PP-001), up to 12 hours after dosing): highly persistent in the cornea; % bound [2]: ~100%"
Netarsudil mesylate,–,">10,000%",–,–,"Thermodynamic solubility in 5% HSA in PBS pH 7.4 ([1]; 5% HSA in PBS pH 7.4, saturated, LC/MS): 0.140 mg/mL; Thermodynamic solubility in PBS pH 7.4 ([1]; PBS pH 7.4, saturated, LC/MS): <0.000051 mg/mL; Increase in solubility ([1]; listed as netarsudil mesylate): > 274,763%"
CCNC(=O)CCC/C=C\C[C@@H]1[C@@H](/C=C/[C@@H](O)CCc2ccccc2)[C@H](O)C[C@@H]1O [Bimatoprost],1230,144%,3010,77.6,–
CNCC(O)c1ccc(OC(=O)C(C)(C)C)c(OC(=O)C(C)(C)C)c1 (stereo not drawn) [Dipivefrin HCl],2340,218%,7440,64.8,–
CC(=O)OCC(=O)[C@@]1(O)CC[C@H]2[C@@H]3CCC4=CC(=O)C=C[C@]4(C)[C@H]3[C@@H](O)C[C@@]21C [Prednisolone acetate],–,–,–,94.3,–
NC(=O)Cc1cccc(C(=O)c2ccccc2)c1N [Nepafenac],9,619%,64,92.1,–
